Experimental data as given in US20250163048A1 (Tango Therapeutics, Inc., priority 2022, published 2025).
Read-outs that look alike come from different tables or passages of the source.

Experiments:
[1] = tested on: HAP1 MTAP-deleted cell line; experiment: SDMA in-cell western assay, HAP1 MTAP-deleted; conditions: for IC50 / IC90: Homo sapiens; for Hap1 MTAP intact/deleted ratio: IC50 ratio between HAP1 MTAP-intact and HAP1 MTAP-deleted cell line
[2] = tested on: HAP1 MTAP-intact cell line; experiment: SDMA in-cell western assay, HAP1 MTAP-intact; conditions: Homo sapiens
MTAP-deleted cell line = experiment: viability assay for the MTAP-deleted cell line; assay type: cell-based; conditions: Homo sapiens, HAP1, viability assay
[3] = HAP1, read-out: Hap1 MTAP deleted IC50, SDMA in-cell western, HAP1 MTAP-deleted cell line
[4] = HAP1, read-out: Hap1 MTAP deleted IC90, SDMA in-cell western, HAP1 MTAP-deleted cell line
[5] = HAP1, read-out: Hap1 MTAP intact IC50, SDMA in-cell western, HAP1 MTAP-intact cell line
[6] = HAP1, read-out: Hap1 MTAP intact IC50
[7] = HAP1, read-out: Hap1 MTAP deleted IC50, SDMA in-cell western assay, HAP1 MTAP-deleted cell line
[8] = HAP1, read-out: Hap1 MTAP deleted IC90, SDMA in-cell western assay, HAP1 MTAP-deleted cell line
[9] = HAP1, read-out: Hap1 MTAP intact IC50, SDMA in-cell western assay, HAP1 MTAP-intact cell line

| SMILES | IC50 [1, 3] [nM] | IC90 [1, 4] [nM] | Hap1 MTAP intact/deleted ratio ([1]; SDMA in-cell western) | IC50 [2, 5] [nM] | IC50 (MTAP-deleted cell line) [nM] | IC50 [2, 6] [nM] | IC50 [1, 7] [nM] | IC90 [1, 8] [nM] | Hap1 MTAP intact/deleted ratio ([1]; SDMA in-cell western assay) | IC50 [2, 9] [nM] |
| --- | --- | --- | --- | --- | --- | --- | --- | --- | --- | --- |
| CC1CCC(c2ccc3cn(C4CCN(C)CC4C)nc3c2)N(C(=O)C(=O)Nc2cncc3cn[nH]c23)C1 (racemic) [Compound 173, 2-oxo-N-(1H-pyrazolo[4,3-c]pyridin-7-yl)-2-[rac-(2R,5S)-5-methyl-2-[2-[rac-(3R,4S)-1,3-dimethyl-4-piperidyl]indazol-6-yl]-1-piperidyl]acetamide] | < 5 | < 75 | A (“A” indicates an IC50 ratio greater than or equal to 30 fold) | > 50 | < 100 | – | – | – | – | – |
| C[C@H]1CC[C@H](c2ccc(F)c(Cl)c2)N(C(=O)C(=O)Nc2cnc(N)c3cn[nH]c23)C1 (racemic) [Compound 184, N-(4-amino-1H-pyrazolo[4,3-c]pyridin-7-yl)-2-(rac-(2S,5R)-2-(3-chloro-4-fluorophenyl)-5-methylpiperidin-1-yl)-2-oxoacetamide] | < 5 | < 75 | A (“A” indicates an IC50 ratio greater than or equal to 30 fold) | > 50 | < 100 | – | – | – | – | – |
| CCn1ncc2cc([C@H]3CC[C@H](C)CN3C(=O)C(=O)Nc3cnc(N)c4cn[nH]c34)ccc21 (racemic) [Compound 189, N-(4-Amino-1H-pyrazolo[4,3-c]pyridin-7-yl)-2-oxo-2-[rac-(2R,5S)-2-(1-ethylindazol-5-yl)-5-methyl-1-piperidyl]acetamide] | < 5 | < 75 | C (“C” indicates an IC50 ratio of less than 15 fold) | 5 to 50 | < 100 | – | – | – | – | – |
| CC1OCc2c(NC(=O)C(=O)N3C[C@@H](C)CC[C@@H]3c3ccc4scnc4c3)cnc(N)c21 (mixture of isomers) [Compound 196, N-(4-amino-3-methyl-1,3-dihydrofuro[3,4-c]pyridin-7-yl)-2-oxo-2-[(2R,5S)-2-(1,3-benzothiazol-5-yl)-5-methyl-1-piperidyl]acetamide] | 5 to 50 | < 75 | C (“C” indicates an IC50 ratio of less than 15 fold) | – | < 100 | > 50 | – | – | – | – |
| C[C@H]1CC[C@H](c2cccc(F)c2)N(C(=O)C(=O)Nc2cnc(N)c3cn[nH]c23)C1 (racemic) [Compound 198, N-(4-Amino-1H-pyrazolo[4,3-c]pyridin-7-yl)-2-oxo-2-[rac-(2R,5S)-2-(3-fluorophenyl)-5-methyl-1-piperidyl]acetamide] | – | – | – | – | < 100 | – | < 5 | < 75 | B (“B” indicates an IC50 ratio greater than or equal to 15 fold but lower than 30 fold) | 5 to 50 |
| C[C@H]1CC[C@H](c2ccc3c(c2)CCO3)N(C(=O)C(=O)Nc2cnc(N)c3cn[nH]c23)C1 (racemic) [Compound 206, N-(4-Amino-1H-pyrazolo[4,3-c]pyridin-7-yl)-2-oxo-2-[rac-(2R,5S)-2-(2,3-dihydrobenzofuran-5-yl)-5-methyl-1-piperidyl]acetamide] | – | – | – | – | < 100 | – | < 5 | < 75 | B (“B” indicates an IC50 ratio greater than or equal to 15 fold but lower than 30 fold) | 5 to 50 |
| C[C@H]1CC[C@H](c2ccc3sc(C4CCC(N(C)C)CC4)nc3c2)N(C(=O)C(=O)Nc2cnc(N)c3cn[nH]c23)C1 (mixture of isomers) [Compound 212, N-(4-Amino-1H-pyrazolo[4,3-c]pyridin-7-yl)-2-oxo-2-[rac-(2R,5S)-2-[2-[4-(dimethylamino)cyclohexyl]-1,3-benzothiazol-5-yl]-5-methyl-1-piperidyl]acetamide] | – | – | – | – | < 100 | – | < 5 | < 75 | C (“C” indicates an IC50 ratio of less than 15 fold) | 5 to 50 |
| Cc1ccc2ccc([C@H]3CC[C@H](C)CN3C(=O)C(=O)Nc3cnc(N)c4cn[nH]c34)cc2n1 (racemic) [Compound 215, N-(4-Amino-1H-pyrazolo[4,3-c]pyridin-7-yl)-2-oxo-2-[rac-(2R,5S)-5-methyl-2-(2-methyl-7-quinolyl)-1-piperidyl]acetamide] | – | – | – | – | < 100 | – | < 5 | < 75 | C (“C” indicates an IC50 ratio of less than 15 fold) | 5 to 50 |
| C[C@@H]1CN(C(=O)C(=O)Nc2cnc(N)c3cn[nH]c23)[C@@H](c2ccccc2)CC1(F)F (racemic) [Compound 216, N-(4-Amino-1H-pyrazolo[4,3-c]pyridin-7-yl)-2-oxo-2-[rac-(2R,5R)-4,4-difluoro-5-methyl-2-phenyl-1-piperidyl]acetamide] | – | – | – | – | < 100 | – | < 5 | < 75 | C (“C” indicates an IC50 ratio of less than 15 fold) | 5 to 50 |
| C[C@H]1CC[C@H](C2(C(F)(F)F)CC2)N(C(=O)C(=O)Nc2cnc(N)c3cn[nH]c23)C1 (racemic) [Compound 226, N-(4-Amino-1H-pyrazolo[4,3-c]pyridin-7-yl)-2-oxo-2-[rac-(2R,5S)-5-methyl-2-[1-(trifluoromethyl)cyclopropyl]-1-piperidyl]acetamide] | – | – | – | – | 100 to 1000 | – | 5 to 50 | > 125 | B (“B” indicates an IC50 ratio greater than or equal to 15 fold but lower than 30 fold) | > 50 |
| CC[C@@H]1CC[C@H](CC)N(C(=O)C(=O)Nc2cnc(N)c3cn[nH]c23)C1 (racemic) [Compound 227] | – | – | – | – | < 100 | – | < 5 | < 75 | B (“B” indicates an IC50 ratio greater than or equal to 15 fold but lower than 30 fold) | 5 to 50 |
| C[C@H]1CC[C@H](C2(C)CC2)N(C(=O)C(=O)Nc2cnc(N)c3cn[nH]c23)C1 (racemic) [Compound 228, N-(4-Amino-1H-pyrazolo[4,3-c]pyridin-7-yl)-2-oxo-2-[rac-(2R,5S)-5-methyl-2-(1-methylcyclopropyl)-1-piperidyl]acetamide] | – | – | – | – | < 100 | – | < 5 | < 75 | A (“A” indicates an IC50 ratio greater than or equal to 30 fold) | > 50 |
| CC(C)n1cc2cc([C@H]3CC[C@H](C)CN3C(=O)C(=O)Nc3cnc(N)c4cn[nH]c34)ccc2n1 (racemic) [Compound 231, N-(4-Amino-1H-pyrazolo[4,3-c]pyridin-7-yl)-2-oxo-2-[rac-(2R,5S)-2-(2-isopropylindazol-5-yl)-5-methyl-1-piperidyl]acetamide] | – | – | – | – | < 100 | – | < 5 | < 75 | A (“A” indicates an IC50 ratio greater than or equal to 30 fold) | 5 to 50 |
| CC[C@@H]1CC[C@@H](CC)N(C(=O)C(=O)Nc2cnc(N)c3cn[nH]c23)C1 (racemic) [Compound 233] | – | – | – | – | < 100 | – | < 5 | < 75 | B (“B” indicates an IC50 ratio greater than or equal to 15 fold but lower than 30 fold) | > 50 |
| C[C@H]1CC[C@H](c2ccc3c(c2)OCC3)N(C(=O)C(=O)Nc2cnc(N)c3cn[nH]c23)C1 (racemic) [Compound 238] | – | – | – | – | < 100 | – | < 5 | < 75 | A (“A” indicates an IC50 ratio greater than or equal to 30 fold) | 5 to 50 |
| Cc1cc([C@H]2CC[C@H](C)CN2C(=O)C(=O)Nc2cnc(N)c3cn[nH]c23)cnc1C (racemic) [Compound 241, N-(4-Amino-1H-pyrazolo[4,3-c]pyridin-7-yl)-2-oxo-2-[rac-(2R,5S)-2-(5,6-dimethyl-3-pyridyl)-5-methyl-1-piperidyl]acetamide] | – | – | – | – | < 100 | – | < 5 | < 75 | A (“A” indicates an IC50 ratio greater than or equal to 30 fold) | > 50 |
| CC(C)[C@@H]1CC[C@@H](C)CN1C(=O)C(=O)Nc1cnc(N)c2cn[nH]c12 (racemic) [Compound 244, N-(4-amino-1H-pyrazolo[4,3-c]pyridin-7-yl)-2-(rac-(2S,5R)-2-isopropyl-5-methylpiperidin-1-yl)-2-oxoacetamide] | – | – | – | – | < 100 | > 50 | < 5 | < 75 | – | – |
| Nc1ncc(NC(=O)C(=O)N2[C@@H](c3ccccc3)CCC[C@H]2C(F)(F)F)c2[nH]ncc12 (racemic) [Compound 245, N-(4-Amino-2H-pyrazolo[4,3-c]pyridin-7-yl)-2-oxo-2-[rac-(2R,6S)-2-phenyl-6-(trifluoromethyl)-1-piperidyl]acetamide] | – | – | – | – | < 100 | – | < 5 | < 75 | A (“A” indicates an IC50 ratio greater than or equal to 30 fold) | > 50 |
| COc1ncc([C@H]2CC[C@H](C)CN2C(=O)C(=O)Nc2cnc(N)c3cn[nH]c23)cc1C (racemic) [Compound 246, N-(4-Amino-1H-pyrazolo[4,3-c]pyridin-7-yl)-2-oxo-2-[rac-(2R,5S)-2-(6-methoxy-5-methyl-3-pyridyl)-5-methyl-1-piperidyl]acetamide] | – | – | – | – | < 100 | – | < 5 | < 75 | B (“B” indicates an IC50 ratio greater than or equal to 15 fold but lower than 30 fold) | 5 to 50 |
